We go through 17 compounds from PMC7662226, “Discovery of Novel Indolealkylpiperazine Derivatives as Potent 5-HT1A Receptor Agonists for the Potential Future Treatment of Depression” (Molecules, 2020).

What all share (assay type): cell-based
The target in experiment [1] is T1, human 5-HT2AR (Homo sapiens, UniProt P28223).
T1 construct: expressed in transfected cells; host or cells: CHO-K1
Put plainly: Fluorometric Imaging Plate Reader (FLIPR) assay, 5-HT2AR. As to conditions: functional activity, calcium flux, human 5-HT2AR expressed by CHO-K1 cells; NA: no activity. As to the method: 1.2.2. Fluorometric Imaging Plate Reader (FLIPR) assay
The FLIPR assay was performed to evaluate the function of synthesized compounds to 5-HT2AR with human 5-HT2AR expressed by CHO-K1 cells. Reference compound for 5-HT2AR was […]
[…] After 15 min add 22.5 µl /well of inducer and calcium flux signal is measured. The IC50 values were calculated by nonlinear regression using a sigmoidal function.
(In general: Calcium flux is commonly read through the fluorescence of an indicator in the cells.)

Experiment [2] deals with T2, human 5-HT1AR (Homo sapiens, UniProt P08908).
T2 construct: expressed in transfected cells; host or cells: HEK-293
T2 sequence (P08908 1-422): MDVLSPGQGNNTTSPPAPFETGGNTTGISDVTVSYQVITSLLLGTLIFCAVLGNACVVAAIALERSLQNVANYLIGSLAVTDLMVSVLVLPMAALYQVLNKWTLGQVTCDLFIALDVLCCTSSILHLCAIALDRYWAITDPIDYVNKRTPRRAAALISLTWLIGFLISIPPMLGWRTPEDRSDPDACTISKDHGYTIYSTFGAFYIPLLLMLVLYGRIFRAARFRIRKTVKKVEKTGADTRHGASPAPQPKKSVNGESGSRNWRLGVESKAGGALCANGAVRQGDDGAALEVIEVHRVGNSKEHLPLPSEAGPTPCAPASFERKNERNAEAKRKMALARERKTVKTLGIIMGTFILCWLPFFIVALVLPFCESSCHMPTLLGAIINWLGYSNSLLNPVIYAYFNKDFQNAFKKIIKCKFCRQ
Put plainly: Ultra Lance cAMP assay, 5-HT1AR. As to conditions: agonistic functional activity, human 5-HT1AR expressed by HEK-293 cells; NA: no activity. As to the method: (§1) 1.2 Biological Evaluation
(§2) 1.2.1. Ultra Lance cAMP assay
(§3) The Ultra Lance cAMP assay was performed to evaluate the function of synthesized compounds to D2R and 5-HT1AR with human D2R and 5-HT1AR expressed by HEK-293 cells.
(§4) […] The IC50 values were calculated by nonlinear regression using a sigmoidal function.
In general terms: Changes in cAMP serve as a functional read-out for many G protein-coupled receptors.

Experiment [3] concerns the target T3, human D2R (Homo sapiens, UniProt P14416).
T3 construct: expressed in transfected cells; host or cells: HEK-293
The experiment can be described thus: Ultra Lance cAMP assay, D2R. To be noted: functional activity, human D2R expressed by HEK-293 cells; NA: no activity. As for the experimental part:
as §1, §2, §3, §4

Structures are written as SMILES.

T3 sequence (P14416 whole entry): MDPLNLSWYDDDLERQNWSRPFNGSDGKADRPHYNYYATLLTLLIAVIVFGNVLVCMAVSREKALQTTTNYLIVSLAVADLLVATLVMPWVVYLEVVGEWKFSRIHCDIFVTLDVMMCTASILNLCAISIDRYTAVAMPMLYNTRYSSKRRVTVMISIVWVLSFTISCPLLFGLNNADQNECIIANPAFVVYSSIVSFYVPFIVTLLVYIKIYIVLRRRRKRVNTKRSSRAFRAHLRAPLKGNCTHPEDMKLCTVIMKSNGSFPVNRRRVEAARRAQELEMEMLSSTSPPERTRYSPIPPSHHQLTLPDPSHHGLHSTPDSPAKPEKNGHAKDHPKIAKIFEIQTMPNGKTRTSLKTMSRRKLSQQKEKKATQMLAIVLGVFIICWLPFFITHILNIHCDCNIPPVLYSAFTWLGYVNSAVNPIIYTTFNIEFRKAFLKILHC
T1 sequence (P28223 whole entry): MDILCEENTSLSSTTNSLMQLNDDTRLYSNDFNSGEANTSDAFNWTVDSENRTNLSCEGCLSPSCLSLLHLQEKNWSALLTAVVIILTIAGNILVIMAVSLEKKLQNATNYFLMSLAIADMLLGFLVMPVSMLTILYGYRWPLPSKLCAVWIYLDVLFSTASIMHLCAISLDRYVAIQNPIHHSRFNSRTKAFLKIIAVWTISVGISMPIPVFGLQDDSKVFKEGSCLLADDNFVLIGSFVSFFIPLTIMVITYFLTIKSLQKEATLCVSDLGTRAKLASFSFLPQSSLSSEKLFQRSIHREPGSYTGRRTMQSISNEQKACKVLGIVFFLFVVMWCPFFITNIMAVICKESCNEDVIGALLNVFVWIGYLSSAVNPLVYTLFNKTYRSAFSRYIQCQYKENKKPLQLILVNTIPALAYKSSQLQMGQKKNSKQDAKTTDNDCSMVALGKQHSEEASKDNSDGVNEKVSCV

`N#Cc1ccc2[nH]cc(CCCN3CCN(C(=O)c4cc(S(=O)(=O)NCC5CC5)ccc4OCC4COC4)CC3)c2c1` [Compound 13n]: the IC50 – broadly, the midpoint of a concentration-inhibition curve – in experiment [1] is more than 5000 nM. In addition, the EC50 (commonly the concentration needed to bring the measured effect to its halfway point) in experiment [2] turned out to be 31.6 nM.
On to `CC(Oc1ccc(S(C)(=O)=O)cc1C(=O)N1CCN(CCCc2c[nH]c3ccc(C#N)cc23)CC1)C(F)(F)F` (centres unmarked) [Compound 13c], for which the IC50 in experiment [1] is 1140 nM. The compound also came in with an EC50 in experiment [2] of 197 nM.
For `CNS(=O)(=O)c1ccc(OCC2COC2)c(C(=O)N2CCN(CCCc3c[nH]c4ccc(C#N)cc34)CC2)c1` [Compound 13i], in experiment [1], the IC50 was 4190 nM. In experiment [2], this compound yielded an EC50 of 400 nM.
The compound `N#Cc1ccc2[nH]cc(CCCN3CCN(C(=O)c4cc(S(=O)(=O)NCC5CC5)ccc4OC4COC4)CC3)c2c1` [Compound 13q, 3-(4-(3-(5-cyano-1H-indol-3-yl)propyl)piperazine-1-carbonyl)-N-(cyclopropylmethyl)-4-(oxetan-3-yloxy)benzenesulfonamide] yielded an EC50 in experiment [2] of 175 nM.
Consider `CNS(=O)(=O)c1ccc(OCC(C)C)c(C(=O)N2CCN(CCCc3c[nH]c4ccc(C#N)cc34)CC2)c1` [Compound 13h], for which the IC50 in experiment [1] amounted to 567 nM. Moreover, the EC50 in experiment [2] was 5.67 nM.
For the compound `CCS(=O)(=O)c1ccc(OCC2CC2)c(C(=O)N2CCN(CCCc3c[nH]c4ccc(C#N)cc34)CC2)c1` [Compound 13e], the concentration for half-maximal inhibition (IC50) in experiment [1] is 1290 nM; in experiment [3] it was more than 5000 nM. Also, in experiment [2], the midpoint of the response, the EC50, lay at 49.2 nM.
In the same order, the values of `N#Cc1ccc2[nH]cc(CCCN3CCN(C(=O)c4cc(S(=O)(=O)NCC5CC5)ccc4OCC4CC4)CC3)c2c1` [Compound 13g] are 2280 nM, 4310 nM and 5.35 nM.
Consider `CCOc1ccc(S(=O)(=O)NCC2CC2)cc1C(=O)N1CCN(CCCc2c[nH]c3ccc(C#N)cc23)CC1` [Compound 13p, 3-(4-(3-(5-cyano-1H-indol-3-yl)propyl)piperazine-1-carbonyl)-N-(cyclopropylmethyl)-4-ethoxybenzenesulfonamide], for which the IC50 in experiment [1] was determined as 4730 nM. In addition, in experiment [2], the midpoint of the response, the EC50, lay at 48.2 nM.
The compound `CC(C)Oc1ccc(S(=O)(=O)NCC2CC2)cc1C(=O)N1CCN(CCCc2c[nH]c3ccc(C#N)cc23)CC1` [Compound 13o, 3-(4-(3-(5-cyano-1H-indol-3-yl)propyl)piperazine-1-carbonyl)-N-(cyclopropylmethyl)-4-isopropoxybenzenesulfonamide] returned an EC50 in experiment [2] of 22.8 nM.
Turning to `CC(C)COc1ccc(S(=O)(=O)NCC2CC2)cc1C(=O)N1CCN(CCCc2c[nH]c3ccc(C#N)cc23)CC1` [Compound 13m], the IC50 is 1530 nM in experiment [1] and more than 5000 nM in experiment [3]. Moreover, the EC50 in experiment [2] worked out at 1.01 nM.
For the compound `CNS(=O)(=O)c1ccc(OCC2CC2)c(C(=O)N2CCN(CCCc3c[nH]c4ccc(C#N)cc34)CC2)c1` [Compound 13f], the IC50 in experiment [1] was 1100 nM. The same compound had an EC50 in experiment [2] of 23.6 nM.
The compound `CNS(=O)(=O)c1ccc(OC2COC2)c(C(=O)N2CCN(CCCc3c[nH]c4ccc(C#N)cc34)CC2)c1` [Compound 13l] returned an EC50 in experiment [2] of 524 nM.
For the compound `CCOc1ccc(S(=O)(=O)NC)cc1C(=O)N1CCN(CCCc2c[nH]c3ccc(C#N)cc23)CC1` [Compound 13k], the IC50 in experiment [1] was determined as 1780 nM. Besides, in experiment [2], the EC50 turned out to be 77.5 nM.
For `CS(=O)(=O)c1ccc(OCC2CC2)c(C(=O)N2CCN(CCCc3c[nH]c4ccc(C#N)cc34)CC2)c1` [Compound 13d] the same measures were 887 nM and 88 nM.
For the compound `CNS(=O)(=O)c1ccc(OC(C)C)c(C(=O)N2CCN(CCCc3c[nH]c4ccc(C#N)cc34)CC2)c1` [Compound 13j], the “5-HT1AR EC50” value in experiment [2] was “completely lose activity”.
For `CS(=O)(=O)c1ccc(F)c(C(=O)N2CCN(CCCc3c[nH]c4ccc(C#N)cc34)CC2)c1` [Compound 13a], in experiment [1], the IC50 is more than 5000 nM. Besides, the EC50 in experiment [2] amounted to 168 nM.
For the compound `CS(=O)(=O)c1ccc(N2CCOCC2)c(C(=O)N2CCN(CCCc3c[nH]c4ccc(C#N)cc34)CC2)c1` [Compound 13b], it took 990 nM to reach a half-maximal effect in experiment [2] (EC50).
